According to patent publication US7863478B2, “UV filters” (Merck Patent GmbH, priority 2004, dated 2011):

Legend:
[1] = UV absorption (UV-VIS spectra in 2-propanol, 1 mg/100 ml); format: physicochemical; design: UV absorbance at λmax (1 mg/100 ml): unit not given here; details: for UV-VIS λmax / UV absorbance at λmax (1 mg/100 ml): 1 mg/100 ml; for UV absorbance at λmax (1 mg/100 ml): value in brackets after λmax in the synthesis example; for UVB (280-320 nm) max. abs / UVB max. at λ [nm]: solvent 2-Propanol, c 1 mg/100 ml
Protocol: FIG. 1: UV absorption spectra of 1-hydroxy-3-[(E)-3-(4-methoxyphenyl)-2-propenoyloxy]-2-oxopropane (Example 1a) and 1-hydroxy-3-(2-cyano-3,3-diphenylacryloyloxy)-2-oxopropane (Example 1b) (in each case measured in 2-propanol at a concentration of 1 mg/100 ml)
FIG. 2: UV absorption spectra of 3-[4-(3-hydroxy-2-oxopropoxymethyl)benzylidene]-4,7,7-trimethylbicyclo[2.2.1]heptan-2-one (Example 9), N-(2,3-dihydroxypropyl)-(E)-3-(4-methoxyphenyl)acrylamide (Example 10a) and N-(2,3-dihydroxypropyl)-N-methyl-(E)-3-(4-methoxyphenyl)acrylamide (Example 10b) (in each case measured in 2-propanol at a concentration of 1 mg/100 ml).

UV-VIS λmax [1] [nm] | UV absorbance at λmax (1 mg/100 ml) [1] | melting point | UVB (280-320 nm) max. abs [1] | UVB max. at λ [nm] [1] [nm] | Compound
301.0 | 0.947 | 172 to 174 °C |  |  | COc1ccc(/C=C/C(=O)OCC(=O)CO)cc1 [Example 1a, 1-Hydroxy-3-[(E)-3-(4-methoxyphenyl)-2-propenoyloxy]-2-oxopropane]
303.0 | 0.375 | 204 °C (dec.) |  |  | N#CC(C(=O)OCC(=O)CO)=C(c1ccccc1)c1ccccc1 [Example 1b, 1-Hydroxy-3-(2-cyano-3,3-diphenylacryloyloxy)-2-oxopropane]
311.0 | 1.213 | 129 to 131 °C |  |  | CN(C)c1ccc(C(=O)OCC(=O)CO)cc1 [Example 3, 3-Hydroxy-2-oxopropyl 4-dimethylaminobenzoate]
298.0 | 0.940 | 104 to 106 °C |  |  | COc1ccc(/C=C/C(=O)NCC(O)CO)cc1 (centres unmarked) [Example 10a, N-(2,3-dihydroxypropyl)-(E)-3-(4-methoxyphenyl)acrylamide]
301.0 | 0.934 | 81 to 83 °C |  |  | COc1ccc(/C=C/C(=O)N(C)CC(O)CO)cc1 (centres unmarked) [Example 10b, N-(2,3-dihydroxypropyl)-N-methyl-(E)-3-(4-methoxyphenyl)acrylamide]
301.0 | 0.947 | 152 to 153 °C |  |  | CN(C)c1ccc(C(=O)NCC(O)CO)cc1 (centres unmarked) [Example 10d, N-(2,3-dihydroxypropyl)-4-dimethylaminobenzamide]
294.0 | 0.941 | 160 to 162 °C |  |  | COc1ccc(/C=C/C(=O)NCC(=O)CO)cc1 [Example 20, N-(3-hydroxy-2-oxopropyl)-(E)-3-(4-methoxyphenyl)acrylamide]
307.5 | 0.706 | 155 to 157 °C |  |  | CCCCC(CC)COc1ccc(/C=C/C(=O)NCC(=O)CO)cc1 (centres unmarked) [Example 21, N-(3-hydroxy-2-oxopropyl)-(E)-3-[4-(2-ethylhexyloxyphenyl)]acrylamide]
307.0 | 1.140 | 146 to 148 °C |  |  | COc1ccc(/C=C/C(=O)OCC(=O)COC(=O)/C=C/c2ccc(OC)cc2)cc1 [Example 23, 1,3-Bis-[(E)-3-(4-methoxyphenyl)-2-propenoyloxy]-2-oxopropane]
301.0 | 0.947 | 77 to 79 °C |  |  | CCCCC(CC)COc1ccc(/C=C/C(=O)OCC(=O)COC(=O)/C=C/c2ccc(OCC(CC)CCCC)cc2)cc1 (centres unmarked) [Example 23a]
304.0 | 0.031 | 209 °C |  |  | N#CC(C(=O)OCC(=O)COC(=O)C(C#N)=C(c1ccccc1)c1ccccc1)=C(c1ccccc1)c1ccccc1 [Example 23b, 1,3-Bis-(2-cyano-3,3-diphenylacryloyloxy)-2-oxopropane]
 |  |  | 0.375 | 303.0 | N#CC(C(=O)OCC(=O)CO)=C(c1ccccc1)c1ccccc1 [drawing 77, 1-Hydroxy-3-(2-cyano-3,3-diphenylacryloyloxy)-2-oxopropane]
 |  |  | 0.031 | 304.0 | N#CC(C(=O)OCC(=O)COC(=O)C(C#N)=C(c1ccccc1)c1ccccc1)=C(c1ccccc1)c1ccccc1 [drawing 78, 1,3-Bis-(2-cyano-3,3-diphenylacryloyloxy)-2-oxopropane]
 |  |  | 0.941 | 294.0 | COc1ccc(/C=C/C(=O)NCC(=O)CO)cc1 [drawing 81, N-(3-hydroxy-2-oxopropyl)-(E)-3-(4-methoxyphenyl)acrylamide]
 |  |  | 0.947 | 301.0 | CN(C)c1ccc(C(=O)NCC(O)CO)cc1 (centres unmarked) [drawing 82]
 |  |  | 1.213 | 311.0 | CN(C)c1ccc(C(=O)OCC(=O)CO)cc1 [drawing 83, 3-Hydroxy-2-oxopropyl 4-dimethylaminobenzoate]
 |  |  | 0.575 | 298.0 | CN(C)c1ccc(C(=O)NCC(=O)CO)cc1 [drawing 85, N-(3-hydroxy-2-oxopropyl)-4-dimethylaminobenzamide]
 |  |  | 0.688 | 307.0 | CCCCC(CC)COc1ccc(/C=C/C(=O)NCC(O)CO)cc1 (centres unmarked) [drawing 89, N-(2,3-dihydroxypropyl)-(E)-[4-(2-ethylhexyloxyphenyl)]acrylamide]
 |  |  | 0.706 | 307.5 | CCCCC(CC)COc1ccc(/C=C/C(=O)NCC(=O)CO)cc1 (centres unmarked) [drawing 90, N-(3-hydroxy-2-oxopropyl)-(E)-3-[4-(2-ethylhexyloxyphenyl)]acrylamide]
 |  |  | 0.914 | 289 | COc1ccc(/C=C/C(=O)NCC(O)CO)cc1 (centres unmarked) [drawing 94]
 |  |  | 0.715 | 292 | COc1ccc(/C=C/C(=O)N(C)CC(O)CO)cc1 (centres unmarked) [drawing 96]

Compound | UV-VIS λmax [1] [nm] | UV absorbance at λmax (1 mg/100 ml) [1] | melting point | UVB (280-320 nm) max. abs [1] | UVB max. at λ [nm] [1] [nm]
CN(C)c1ccc(C(=O)OCC(=O)CO[Si](C)(C)C(C)(C)C)cc1 [Example 2] | 299.0 | 0.67 | 91 to 92 °C |  | 
COc1ccc(/C=C/C(=O)NCC(O)CO[Si](C)(C)C(C)(C)C)cc1 (centres unmarked) [Example 12, N-[3-(tert-butyldimethylsilyloxy)-2-hydroxypropyl]-(E)-3-(4-methoxyphenyl)acrylamide] | 291.0 | 0.481 | 107 to 109 °C |  | 
CN(C)c1ccc(C(=O)NCC(O)CO[Si](C)(C)C(C)(C)C)cc1 (centres unmarked) [Example 15, N-[3-(tert-butyldimethylsilyloxy)-2-hydroxypropyl]-4-dimethylaminobenzamide] | 301.0 | 0.64 | 127 to 128 °C |  | 
COc1ccc(/C=C/C(=O)NCC(=O)CO[Si](C)(C)C(C)(C)C)cc1 [Example 17, N-[3-(tert-butyldimethylsilyloxy)-2-oxopropyl]-(E)-3-(4-methoxyphenyl)acrylamide] | 300.0 | 0.843 | 151 to 152 °C |  | 
CN(C)c1ccc(C(=O)NCC(O)CO[Si](C)(C)C(C)(C)C)cc1 (centres unmarked) [drawing 84, N-[3-(tert-butyldimethylsilyloxy)-2-hydroxypropyl]-4-dimethylaminobenzamide] |  |  |  | 0.64 | 301.0
CN(C)c1ccc(C(=O)NCC(=O)CO[Si](C)(C)C(C)(C)C)cc1 [drawing 86, N-[3-(tert-butyldimethylsilyloxy)-2-oxopropyl]-4-dimethylaminobenzamide] |  |  |  | 0.713 | 312.0
COc1ccc(/C=C/C(=O)NCC(O)CO[Si](C)(C)C(C)(C)C)cc1 (centres unmarked) [drawing 93] |  |  |  | 0.694 | 289
